These results are taken from ChEMBL document CHEMBL4622974, “Leveraging an Open Science Drug Discovery Model to Develop CNS-Penetrant ALK2 Inhibitors for the Treatment of Diffuse Intrinsic Pontine Glioma” (J Med Chem, 2020).

One data set addresses T1, Activin receptor type-1 (Homo sapiens, UniProt Q04771).
T1 sequence (Q04771 whole entry): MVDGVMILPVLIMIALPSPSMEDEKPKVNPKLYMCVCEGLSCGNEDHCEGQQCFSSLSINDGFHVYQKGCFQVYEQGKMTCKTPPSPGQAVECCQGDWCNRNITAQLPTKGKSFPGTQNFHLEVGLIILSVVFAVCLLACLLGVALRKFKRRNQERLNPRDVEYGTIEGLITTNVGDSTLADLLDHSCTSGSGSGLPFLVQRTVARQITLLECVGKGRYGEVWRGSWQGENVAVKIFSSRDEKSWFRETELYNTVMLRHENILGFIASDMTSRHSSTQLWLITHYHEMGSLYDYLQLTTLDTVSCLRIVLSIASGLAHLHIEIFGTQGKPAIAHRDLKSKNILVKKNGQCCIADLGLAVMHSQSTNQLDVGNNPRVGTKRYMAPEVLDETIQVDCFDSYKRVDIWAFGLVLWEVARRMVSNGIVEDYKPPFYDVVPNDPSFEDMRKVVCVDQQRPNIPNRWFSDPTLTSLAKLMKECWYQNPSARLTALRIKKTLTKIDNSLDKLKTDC
Kind of data set: Inhibition of human ALK2 using casein as substrate in presence of [gamma-33P]-ATP by radiometric hotspot assay.

Data set [1] has as its target Tyrosine-protein kinase Lyn (Homo sapiens) (UniProt P07948). Kind of data set: Inhibition of LYN (unknown origin).
Data set [2] has as its target Activin receptor type-1-like (Homo sapiens, UniProt P37023). Kind of data set: Inhibition of human ALK1 using casein as substrate in presence of [gamma-33P]-ATP by radiometric hotspot assay.
Data set [3] concerns the target Bone morphogenetic protein receptor type-1A (Homo sapiens, UniProt P36894). Kind of data set: Inhibition of human ALK3 using casein as substrate in presence of [gamma-33P]-ATP by radiometric hotspot assay.
Data set [4] deals with Serine/threonine-protein kinase NLK (Homo sapiens, UniProt Q9UBE8). Nature of the data set: Inhibition of NLK (unknown origin).
Data set [5] addresses Cannabinoid receptor 1 (CB1) (Homo sapiens, UniProt P21554). Nature of the data set: Inhibition of recombinant human CB1 at 10 uM incubated for 60 mins by scintillation counting method.
Data set [6] has as its target Alpha-2A adrenergic receptor (Homo sapiens, UniProt P08913). Kind of data set: Inhibition of recombinant human adrenergic alpha2A receptor incubated for 60 mins by scintillation counting method.
In a further data set the target is Cytochrome P450 2C9 (Homo sapiens, UniProt P11712). Kind of data set: Inhibition of CYP2C9 in human liver microsomes using tolbutamide as substrate incubated for 20 mins in presence of NADPH by LC/MS/MS analysis. Format: ADME. (Liver microsomes are vesicles of endoplasmic reticulum, rich in cytochrome P450 enzymes.)
Another data set concerns the target Cytochrome P450 2C19 (Homo sapiens, UniProt P33261). Nature of the data set: Inhibition of CYP2C19 in human liver microsomes using mephenytoin as substrate incubated for 20 mins in presence of NADPH by LC/MS/MS analysis. It is filed as ADME.
A further data set deals with Cytochrome P450 3A4 (Homo sapiens, UniProt P08684). Nature of the data set: Inhibition of CYP3A4 in human liver microsomes using midazolam as substrate incubated for 5 mins in presence of NADPH by LC/MS/MS analysis. It is filed as ADME.
Data set [7] is described as follows: Plasma concentration in NOD/SCID mouse at 25 mg/kg, po measured after 0.5 to 6 hrs. Format: ADME, organism-based. The following applies: in vivo.
Data set [8] can be described thus: Unbound drug level in CD-1 mouse brain at 1 mg/kg, iv measured at 2 hrs. It is filed as ADME, organism-based. The note with it: in vivo.
Data set [9] in a line: Unbound plasma concentration in CD-1 mouse […] at 1 mg/kg, iv measured at 2 hrs by LC/MS/MS method. Format: ADME, organism-based. The following applies: in vivo.
Data set [10] in a line: Plasma concentration in CD-1 mouse at 1 mg/kg, iv measured at 2 hrs by LC/MS/MS method. It is filed as ADME, organism-based.
A short description of data set [11]: Protein binding in CD-1 mouse plasma at 1 mg/kg, iv measured at 2 hrs by LC/MS/MS method. The following applies: read-out: PPB. Format: ADME, organism-based.
A short description of data set [12]: Unbound brain-to-plasma concentration ratio in CD-1 mouse plasma at 1 mg/kg, iv measured at 2 hrs. The note with it: read-out: K(p,uu,brain). Format: ADME, organism-based.
The nature of data set [13]: Toxicity in C57BL/6 mouse assessed as mouse death at 100 mg/kg, po QD administered for 5 days measured after 24 hrs. Format: organism-based. The note with it: in vivo.
Data set [14] in a line: Toxicity in C57BL/6 mouse assessed as body weight loss at 50 mg/kg, po QD administered for 5 days measured after 24 hrs relative to control. It is filed as organism-based. The note with it: in vivo.
A short description of data set [15]: Toxicity in C57BL/6 mouse assessed as body weight loss at 100 mg/kg, po QD administered for 5 days measured after 24 hrs relative to control. Format: organism-based. The note with it: in vivo.
A short description of data set [16]: Ratio of drug level in brain to plasma in CB17 SCID mouse at 50 mg/kg, po measured at 4 h. It is filed as ADME, organism-based. The following applies: read-out: BPR.

A word on the IC50: it is the concentration that gives 50% inhibition. By inhibition is commonly meant the relative decrease from the control value, in per cent.

Activity calls are given as the source filed them. The calls are words filed in the database; no cut-off is given here.

Sequence of Alpha-2A adrenergic receptor (P08913 whole entry): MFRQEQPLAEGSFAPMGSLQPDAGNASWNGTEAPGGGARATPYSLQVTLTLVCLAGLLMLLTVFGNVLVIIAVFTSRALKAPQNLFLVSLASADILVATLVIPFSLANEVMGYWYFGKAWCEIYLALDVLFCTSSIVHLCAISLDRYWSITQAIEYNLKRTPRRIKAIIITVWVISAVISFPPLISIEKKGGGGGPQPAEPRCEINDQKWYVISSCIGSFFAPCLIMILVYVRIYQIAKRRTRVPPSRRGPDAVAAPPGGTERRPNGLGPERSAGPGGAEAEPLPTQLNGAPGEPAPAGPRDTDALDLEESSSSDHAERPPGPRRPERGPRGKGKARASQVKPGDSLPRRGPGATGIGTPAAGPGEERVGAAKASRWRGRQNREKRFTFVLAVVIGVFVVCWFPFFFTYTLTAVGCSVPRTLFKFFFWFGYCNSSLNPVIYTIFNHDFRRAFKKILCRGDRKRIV
Sequence of Tyrosine-protein kinase Lyn (Homo sapiens) (P07948 2-512 limits assumed): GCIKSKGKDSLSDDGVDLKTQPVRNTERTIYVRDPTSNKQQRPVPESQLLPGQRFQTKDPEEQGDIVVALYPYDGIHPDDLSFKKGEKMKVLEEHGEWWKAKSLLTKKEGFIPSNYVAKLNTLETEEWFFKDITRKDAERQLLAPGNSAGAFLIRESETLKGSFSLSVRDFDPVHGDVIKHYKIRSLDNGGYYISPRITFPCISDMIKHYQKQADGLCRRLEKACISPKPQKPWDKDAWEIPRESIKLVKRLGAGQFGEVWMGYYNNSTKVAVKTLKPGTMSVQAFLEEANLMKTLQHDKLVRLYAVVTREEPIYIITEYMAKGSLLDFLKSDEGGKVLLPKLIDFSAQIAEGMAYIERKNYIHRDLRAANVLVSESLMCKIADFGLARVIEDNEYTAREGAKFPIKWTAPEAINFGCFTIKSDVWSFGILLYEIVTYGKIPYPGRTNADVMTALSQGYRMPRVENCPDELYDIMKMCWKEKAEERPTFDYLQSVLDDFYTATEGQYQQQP
Sequence of Serine/threonine-protein kinase NLK (Q9UBE8 whole entry): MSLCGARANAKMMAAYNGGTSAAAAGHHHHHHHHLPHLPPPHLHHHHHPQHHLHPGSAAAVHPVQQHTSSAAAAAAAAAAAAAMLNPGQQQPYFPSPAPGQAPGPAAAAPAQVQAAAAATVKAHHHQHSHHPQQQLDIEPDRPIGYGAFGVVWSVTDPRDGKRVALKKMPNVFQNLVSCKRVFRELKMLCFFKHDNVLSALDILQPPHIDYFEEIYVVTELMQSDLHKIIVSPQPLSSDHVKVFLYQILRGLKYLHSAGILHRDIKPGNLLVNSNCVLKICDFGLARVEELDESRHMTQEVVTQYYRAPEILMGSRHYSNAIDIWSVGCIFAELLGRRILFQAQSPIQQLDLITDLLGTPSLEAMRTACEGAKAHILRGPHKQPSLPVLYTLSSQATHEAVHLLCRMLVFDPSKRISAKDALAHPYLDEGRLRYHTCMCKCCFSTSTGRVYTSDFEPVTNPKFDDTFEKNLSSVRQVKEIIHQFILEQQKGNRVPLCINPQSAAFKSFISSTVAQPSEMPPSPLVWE
Sequence of Activin receptor type-1-like (P37023 whole entry): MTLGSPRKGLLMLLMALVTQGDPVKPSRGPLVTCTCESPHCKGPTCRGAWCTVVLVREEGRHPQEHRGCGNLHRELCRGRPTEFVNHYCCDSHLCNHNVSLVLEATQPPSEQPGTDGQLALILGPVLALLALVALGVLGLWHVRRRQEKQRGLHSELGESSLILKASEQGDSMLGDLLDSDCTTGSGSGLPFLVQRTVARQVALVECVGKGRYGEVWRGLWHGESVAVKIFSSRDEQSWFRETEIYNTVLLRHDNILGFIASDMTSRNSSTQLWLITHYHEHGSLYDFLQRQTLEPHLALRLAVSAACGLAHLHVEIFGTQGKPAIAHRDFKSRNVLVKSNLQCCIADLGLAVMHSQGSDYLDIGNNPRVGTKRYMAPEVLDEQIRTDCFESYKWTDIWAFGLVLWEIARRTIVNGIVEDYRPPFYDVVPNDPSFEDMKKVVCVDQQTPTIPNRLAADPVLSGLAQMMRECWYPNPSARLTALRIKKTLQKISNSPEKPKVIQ
Sequence of Cytochrome P450 2C19 (P33261 whole entry): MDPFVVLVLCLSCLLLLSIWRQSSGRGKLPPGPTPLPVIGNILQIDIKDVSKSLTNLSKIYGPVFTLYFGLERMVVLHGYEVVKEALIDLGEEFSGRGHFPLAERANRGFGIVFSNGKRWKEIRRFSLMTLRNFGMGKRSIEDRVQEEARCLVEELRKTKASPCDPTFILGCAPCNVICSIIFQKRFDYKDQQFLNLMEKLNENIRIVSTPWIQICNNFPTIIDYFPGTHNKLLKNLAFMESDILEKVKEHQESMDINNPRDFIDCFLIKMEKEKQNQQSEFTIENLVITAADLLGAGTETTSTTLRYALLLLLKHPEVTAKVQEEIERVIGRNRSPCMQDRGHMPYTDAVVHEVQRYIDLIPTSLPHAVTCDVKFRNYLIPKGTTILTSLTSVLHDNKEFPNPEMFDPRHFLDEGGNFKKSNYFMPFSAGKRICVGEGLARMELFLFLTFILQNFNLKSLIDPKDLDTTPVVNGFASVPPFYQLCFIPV
Sequence of Cytochrome P450 3A4 (P08684 whole entry): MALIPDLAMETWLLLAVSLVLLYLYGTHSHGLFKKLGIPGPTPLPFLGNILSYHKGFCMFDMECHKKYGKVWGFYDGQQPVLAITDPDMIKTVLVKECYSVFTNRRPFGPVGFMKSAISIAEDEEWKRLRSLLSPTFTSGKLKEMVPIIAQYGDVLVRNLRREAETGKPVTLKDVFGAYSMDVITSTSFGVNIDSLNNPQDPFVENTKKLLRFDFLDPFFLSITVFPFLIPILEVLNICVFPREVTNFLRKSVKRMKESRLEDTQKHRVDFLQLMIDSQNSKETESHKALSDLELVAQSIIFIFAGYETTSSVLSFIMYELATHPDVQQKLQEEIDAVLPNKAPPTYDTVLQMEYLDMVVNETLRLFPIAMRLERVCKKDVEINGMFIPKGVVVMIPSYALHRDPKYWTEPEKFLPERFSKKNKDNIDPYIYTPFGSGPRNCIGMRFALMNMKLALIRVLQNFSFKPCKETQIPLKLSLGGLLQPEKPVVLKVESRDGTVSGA
Sequence of Bone morphogenetic protein receptor type-1A (P36894 whole entry): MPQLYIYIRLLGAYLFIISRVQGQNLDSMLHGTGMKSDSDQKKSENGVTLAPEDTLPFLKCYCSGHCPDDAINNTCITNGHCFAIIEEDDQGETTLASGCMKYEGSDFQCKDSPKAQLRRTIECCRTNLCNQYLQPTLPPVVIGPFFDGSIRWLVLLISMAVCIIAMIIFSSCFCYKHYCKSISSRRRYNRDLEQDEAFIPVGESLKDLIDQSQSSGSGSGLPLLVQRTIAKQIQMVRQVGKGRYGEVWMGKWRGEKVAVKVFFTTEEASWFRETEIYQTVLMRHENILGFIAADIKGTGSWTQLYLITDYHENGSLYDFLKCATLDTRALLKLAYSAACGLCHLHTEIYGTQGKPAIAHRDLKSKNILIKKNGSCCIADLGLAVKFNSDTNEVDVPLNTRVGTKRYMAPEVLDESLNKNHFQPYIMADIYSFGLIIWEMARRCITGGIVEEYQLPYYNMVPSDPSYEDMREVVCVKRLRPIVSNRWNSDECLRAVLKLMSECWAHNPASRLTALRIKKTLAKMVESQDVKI
Sequence of Cannabinoid receptor 1 (CB1) (P21554 whole entry): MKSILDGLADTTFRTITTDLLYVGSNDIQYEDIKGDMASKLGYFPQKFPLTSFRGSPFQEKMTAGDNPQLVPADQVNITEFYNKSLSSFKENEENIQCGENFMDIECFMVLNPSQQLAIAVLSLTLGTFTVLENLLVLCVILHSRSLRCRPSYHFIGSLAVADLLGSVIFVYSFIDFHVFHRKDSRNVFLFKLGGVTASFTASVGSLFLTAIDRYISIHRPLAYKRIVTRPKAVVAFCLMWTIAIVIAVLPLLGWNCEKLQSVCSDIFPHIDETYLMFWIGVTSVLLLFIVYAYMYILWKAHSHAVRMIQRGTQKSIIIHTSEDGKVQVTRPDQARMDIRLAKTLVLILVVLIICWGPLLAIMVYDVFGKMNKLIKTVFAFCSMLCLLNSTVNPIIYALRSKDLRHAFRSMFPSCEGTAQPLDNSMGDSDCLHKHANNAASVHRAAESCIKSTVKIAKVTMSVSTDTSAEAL
Sequence of Cytochrome P450 2C9 (P11712 whole entry): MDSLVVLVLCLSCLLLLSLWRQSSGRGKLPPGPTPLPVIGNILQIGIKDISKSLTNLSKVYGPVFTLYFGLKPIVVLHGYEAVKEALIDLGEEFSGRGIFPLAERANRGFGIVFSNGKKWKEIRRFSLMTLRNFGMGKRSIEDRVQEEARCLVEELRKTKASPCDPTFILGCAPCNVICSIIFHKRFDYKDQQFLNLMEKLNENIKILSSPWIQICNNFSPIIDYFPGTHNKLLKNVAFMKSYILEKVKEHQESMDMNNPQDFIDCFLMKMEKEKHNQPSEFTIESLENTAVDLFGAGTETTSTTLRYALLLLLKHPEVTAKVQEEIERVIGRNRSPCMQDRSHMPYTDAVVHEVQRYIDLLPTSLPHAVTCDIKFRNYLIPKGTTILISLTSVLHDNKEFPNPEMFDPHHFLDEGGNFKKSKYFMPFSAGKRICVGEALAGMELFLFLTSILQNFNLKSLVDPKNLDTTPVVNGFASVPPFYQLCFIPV

For `COc1cc(-c2cncc(-c3ccc(C4CCN(C)CC4)cc3)c2C)cc(OC)c1OC`, the half-inhibitory concentration (IC50) on Activin receptor type-1 amounted to 7 nM. The inhibition result in [1] was “Active”.

Regarding `COc1cc(-c2cncc(-c3ccc(N4CCNCC4)cc3)c2C)cc(OC)c1OC`, the half-maximal inhibitory concentration (IC50) is 15 nM in data set [2]; 428 nM in [3]; 336 to 924 nM in [4]; 2180 nM in data set [6]; more than 30000 nM at Cytochrome P450 2C9; more than 30000 nM on Cytochrome P450 2C19. Besides, at Cytochrome P450 3A4, the IC50 was more than 30000 nM. Also, the inhibition at 1 h, 10 µM in [5] is 97%. For the same molecule, the concentration in data set [7] was 7460 nM. Further, the “Drug uptake(free)” value in data set [8] was 3.7 nM. In [9], the “Cp(f)” value is recorded as 14 nM. In data set [10], this molecule had a concentration at 2 h of 156 nM. In data set [11], the fraction unbound at 2 h is 0.09. Also, in data set [12], the Kp uu at 2 h amounted to 0.3. For the same molecule, the Activity entry in data set [13], in data set [14] and in data set [15] was “Non-Toxic” each time. For the same molecule, the Kp at 4 h in data set [16] was determined as 1.8.
